Test results reported in PubChem BioAssay (NCI).
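Five compound concentrations were applied to cells in 96-well plates for 48 hours; endpoints were derived by simple linear interpolation of the resulting dose-response curve. At the GI50, growth is halved. TGI: concentration producing complete growth inhibition.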

Columns and labels:
Experiment in all cases: growth of human tumour cells (NCI), 48 h
[1] = tested on: DU-145 prostate
[2] = tested on: HCC-2998 colon
[3] = tested on: HOP-92 NSCLC
[4] = tested on: MOLT-4 leukemia
[5] = tested on: NCI-H226 lung
[6] = tested on: NCI/ADR-RES ovarian
[7] = tested on: PC-3 prostate
[8] = tested on: SNB-19 CNS
[9] = tested on: TK-10 renal
[10] = tested on: UACC-257 melanoma

## CCOc1ccc(-c2nonc2NC(=O)c2cccc(C)c2)cc1OCC
[1]
  GI50: > 100 µM
  TGI: > 100 µM
[2]
  GI50: > 100 µM
  TGI: > 100 µM
[3]
  GI50: 21.1 µM
  TGI: 59.1 µM
[4]
  GI50: > 100 µM
  TGI: > 100 µM
[5]
  GI50: > 100 µM
  TGI: > 100 µM
[6]
  GI50: > 100 µM
  TGI: > 100 µM
[7]
  GI50: > 100 µM
  TGI: > 100 µM
[8]
  GI50: 34.9 µM
  TGI: > 100 µM
[9]
  GI50: 22.7 µM
  TGI: 46.8 µM
[10]
  GI50: > 100 µM
  TGI: > 100 µM

## COc1ccc(/C=C/C(=O)c2ccc(SC)cc2)cc1OC
[1]
  GI50: 13.4 µM
  TGI: 30.9 µM
[2]
  GI50: 3.27 µM
  TGI: 12.1 µM
[3]
  GI50: 13.7 µM
  TGI: 31.2 µM
[4]
  GI50: 22.4 µM
  TGI: > 100 µM
[5]
  GI50: 8.42 µM
  TGI: 45.1 µM
[6]
  GI50: 10.9 µM
  TGI: 27.3 µM
[7]
  GI50: 11.5 µM
  TGI: 25.6 µM
[8]
  GI50: 21 µM
  TGI: 56.9 µM
[9]
  GI50: 14.7 µM
  TGI: 32.8 µM
[10]
  GI50: 17 µM
  TGI: 30.9 µM

## Nc1c(Br)cc(Br)c2c1[nH]c(=O)c1ccccc12
[1]
  GI50: 23.6 µM
  TGI: > 100 µM
[2]
  GI50: > 100 µM
  TGI: > 100 µM
[3]
  GI50: 1.96 µM
  TGI: 8.57 µM
[4]
  GI50: 18.4 µM
  TGI: > 63.8 µM
[5]
  GI50: 2.75 µM
  TGI: 12.7 µM
[6]
  GI50: 6.68 µM
  TGI: 66.7 µM
[7]
  GI50: 14.4 µM
  TGI: > 100 µM
[8]
  GI50: 10.2 µM
  TGI: 57.5 µM
[9]
  GI50: 3.67 µM
  TGI: 10.9 µM
[10]
  GI50: 21.7 µM
  TGI: > 100 µM

## CC[C@H](Nc1nc(NCc2cnc(C)cc2C)c2ncn(C(C)C)c2n1)[C@@H](C)O
[1]
  GI50: 0.387 µM
  TGI: > 100 µM
[2]
  GI50: 0.291 µM
  TGI: 2 µM
[3]
  GI50: 0.279 µM
  TGI: 2.27 µM
[4]
  GI50: 0.339 µM
  TGI: > 100 µM
[5]
  GI50: 0.267 µM
  TGI: 0.934 µM
[6]
  GI50: 1.97 µM
  TGI: > 31 µM
[7]
  GI50: 0.314 µM
  TGI: > 100 µM
[8]
  GI50: 0.318 µM
  TGI: > 100 µM
[9]
  GI50: 0.625 µM
  TGI: > 100 µM
[10]
  GI50: 0.41 µM
  TGI: > 100 µM

## CC(C)(C)c1nn(-c2ccccc2)c2c1C(=O)CSC(c1ccccc1Cl)N2 (stereo not given)
[1]
  GI50: 2.86 µM
  TGI: 10.7 µM
[2]
  GI50: 2.08 µM
  TGI: 7.51 µM
[3]
  GI50: 0.82 µM
  TGI: 14.4 µM
[4]
  GI50: 3.42 µM
  TGI: 16.5 µM
[5]
  GI50: 1.61 µM
  TGI: 5.97 µM
[6]
  GI50: 0.632 µM
  TGI: 7.54 µM
[7]
  GI50: 1.62 µM
  TGI: 16.5 µM
[8]
  GI50: 2.54 µM
  TGI: 15.2 µM
[9]
  GI50: 11.1 µM
  TGI: 29.4 µM
[10]
  GI50: 2.78 µM
  TGI: 14.7 µM

## COc1cc2cc(Oc3ccc(NC(=O)Nc4cccc(C(F)(F)F)c4)cc3)c(C)nc2cc1OC
[1]
  GI50: 2.78 µM
  TGI: 15.8 µM
[2]
  GI50: 2.59 µM
  TGI: 50 µM
[3]
  GI50: 1.26 µM
  TGI: 3.96 µM
[4]
  GI50: 1.55 µM
  TGI: 6.87 µM
[5]
  GI50: 1.8 µM
  TGI: 5.6 µM
[6]
  GI50: 1.71 µM
  TGI: 7.19 µM
[7]
  GI50: 1.39 µM
  TGI: 5.49 µM
[8]
  GI50: 2.19 µM
  TGI: 15 µM
[9]
  GI50: 2.26 µM
  TGI: 9.93 µM
[10]
  GI50: 1.09 µM
  TGI: 3.66 µM
